Results: ChEMBL document CHEMBL1201862, “PubChem BioAssay data set” (2004)
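Assay format: 96-well plates, 48-hour exposure. GI50 is the concentration that inhibits growth by half.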 Calls of active or inactive are those of the source. Cut-off read from the data, not from the text of the source: active = GI50 up to about 1.1 µM and inactive = higher.

Assays:
Assay in all cases: NCI tumour cell line growth inhibition, 48 h
OVCAR-3 = tested on: OVCAR-3
SK-MEL-2 = tested on: SK-MEL-2
EKVX = tested on: EKVX
OVCAR-8 = tested on: OVCAR-8
SNB-19 = tested on: SNB-19
RPMI-8226 = tested on: RPMI-8226
DU-145 = tested on: DU-145
NCI-H226 = tested on: NCI-H226
M14 = tested on: M14
MCF7 = tested on: MCF7
HOP-92 = tested on: HOP-92
OVCAR-5 = tested on: OVCAR-5
786-0 = tested on: 786-0
SK-MEL-5 = tested on: SK-MEL-5
HCT-15 = tested on: HCT-15
UACC-257 = tested on: UACC-257
A498 = tested on: A498
NCI/ADR-RES = tested on: NCI/ADR-RES
MDA-N = tested on: MDA-N
T47D = tested on: T47D
MDA-MB-231 = tested on: MDA-MB-231
SK-MEL-28 = tested on: SK-MEL-28
MOLT-4 = tested on: MOLT-4
CAKI-1 = tested on: CAKI-1
SK-OV-3 = tested on: SK-OV-3
NCI-H522 = tested on: NCI-H522
HOP-62 = tested on: HOP-62
LOX IMVI = tested on: LOX IMVI
SN12C = tested on: SN12C
HCT-116 = tested on: HCT-116
RXF 393 = tested on: RXF 393
KM12 = tested on: KM12
A549 = tested on: A549
ACHN = tested on: ACHN
UACC-62 = tested on: UACC-62
UO-31 = tested on: UO-31
HT-29 = tested on: HT-29
NCI-H23 = tested on: NCI-H23
SW-620 = tested on: SW-620
BT-549 = tested on: BT-549
SR = tested on: SR
OVCAR-4 = tested on: OVCAR-4
SF-295 = tested on: SF-295
TK-10 = tested on: TK-10
MDA-MB-435 = tested on: MDA-MB-435
SF-268 = tested on: SF-268
Malme-3M = tested on: Malme-3M
PC-3 = tested on: PC-3
HL-60 = tested on: HL-60
IGROV-1 = tested on: IGROV-1
Hs-578T = tested on: Hs-578T
COLO 205 = tested on: COLO 205
K562 = tested on: K562
U-251 = tested on: U-251
CCRF-CEM = tested on: CCRF-CEM
HCC 2998 = tested on: HCC 2998
SNB-75 = tested on: SNB-75
NCI-H460 = tested on: NCI-H460
SF-539 = tested on: SF-539

Measured: GI50

CC(C)CC1c2[nH]c3ccccc3c2C[C@H]2C(=O)NC(CCC(=O)OC(C)(C)C)C(=O)N12 (stereo partly drawn)
inactive: OVCAR-3 16.8 µM | SK-MEL-2 18.4 µM | EKVX 35.2 µM | OVCAR-8 39.3 µM | SNB-19 37.3 µM | RPMI-8226 25.8 µM | DU-145 47.1 µM | NCI-H226 49.7 µM | M14 36.7 µM | MCF7 36.9 µM | HOP-92 27.5 µM | OVCAR-5 34.3 µM | 786-0 43 µM | SK-MEL-5 25.9 µM | UACC-257 25.9 µM | A498 40.4 µM | NCI/ADR-RES 30.3 µM | MDA-N 30.7 µM | T47D 15.8 µM | MDA-MB-231 27.2 µM | SK-MEL-28 52.1 µM | MOLT-4 22.6 µM | CAKI-1 42.4 µM | SK-OV-3 42.5 µM | NCI-H522 25.2 µM | HOP-62 23 µM | LOX IMVI 22.9 µM | SN12C 22.8 µM | HCT-116 28.8 µM | RXF 393 19.1 µM | KM12 40.6 µM | A549 34 µM | ACHN 30.8 µM | UACC-62 30.5 µM | UO-31 33 µM | HT-29 21.1 µM | NCI-H23 34.6 µM | SW-620 45 µM | BT-549 33.5 µM | SR 22 µM | OVCAR-4 37.3 µM | SF-295 19.4 µM | TK-10 25.8 µM | MDA-MB-435 36 µM | SF-268 27.4 µM | Malme-3M 24.4 µM | PC-3 23.4 µM | HL-60 28.1 µM | IGROV-1 33.5 µM | Hs-578T 15.1 µM | COLO 205 20.6 µM | K562 36.9 µM | U-251 29 µM
33.8 µM: HCT-15

CC(C)(C)OC(=O)C(C1NC(C(=O)O)C(C)(C)S1)N1C(=O)c2ccccc2C1=O (stereo not drawn)
inactive: OVCAR-3 > 100 µM | SK-MEL-2 > 100 µM | EKVX > 100 µM | OVCAR-8 > 100 µM | SNB-19 > 100 µM | RPMI-8226 > 100 µM | DU-145 > 100 µM | M14 > 100 µM | MCF7 > 100 µM | HOP-92 > 100 µM | CCRF-CEM > 100 µM | OVCAR-5 > 100 µM | 786-0 > 100 µM | SK-MEL-5 > 100 µM | HCC 2998 > 100 µM | UACC-257 > 100 µM | A498 > 100 µM | SNB-75 > 100 µM | NCI/ADR-RES > 100 µM | MDA-N > 100 µM | T47D > 100 µM | MDA-MB-231 > 100 µM | SK-MEL-28 > 100 µM | MOLT-4 > 100 µM | CAKI-1 > 100 µM | NCI-H460 > 100 µM | SK-OV-3 > 100 µM | NCI-H522 > 100 µM | HOP-62 > 100 µM | LOX IMVI > 100 µM | SF-539 > 100 µM | SN12C > 100 µM | HCT-116 > 100 µM | RXF 393 > 100 µM | KM12 > 100 µM | A549 > 100 µM | ACHN > 100 µM | UACC-62 > 100 µM | UO-31 > 100 µM | HT-29 > 100 µM | NCI-H23 > 100 µM | SW-620 > 100 µM | BT-549 > 100 µM | SR > 100 µM | OVCAR-4 > 100 µM | SF-295 > 100 µM | TK-10 > 100 µM | MDA-MB-435 > 100 µM | SF-268 > 100 µM | Malme-3M > 100 µM | PC-3 > 100 µM | HL-60 > 100 µM | IGROV-1 > 100 µM | Hs-578T > 100 µM | COLO 205 > 100 µM | K562 > 100 µM | U-251 > 100 µM
> 100 µM: HCT-15

COC(=O)c1c2c(c3[nH]c4ccccc4c3c1C(=O)OC)C(=O)C1=C(C2=O)C2(Cl)C(Cl)C(Cl)C1(Cl)C2(Cl)Cl (stereo not drawn)
inactive: OVCAR-3 2.33 µM | EKVX 3.92 µM | OVCAR-8 1.75 µM | SNB-19 3.4 µM | RPMI-8226 1.19 µM | DU-145 2.07 µM | M14 1.46 µM | HOP-92 1.77 µM | CCRF-CEM 1.89 µM | OVCAR-5 4.69 µM | 786-0 2.68 µM | SK-MEL-5 1.31 µM | HCC 2998 2.91 µM | SNB-75 2.39 µM | NCI/ADR-RES 2.62 µM | T47D 1.35 µM | MDA-MB-231 1.85 µM | SK-MEL-28 1.56 µM | MOLT-4 1.17 µM | CAKI-1 3.18 µM | NCI-H460 3.2 µM | SK-OV-3 4.36 µM | NCI-H522 1.38 µM | HOP-62 3.76 µM | LOX IMVI 1.85 µM | SF-539 2.07 µM | SN12C 1.94 µM | HCT-116 2.02 µM | RXF 393 1.71 µM | KM12 2.54 µM | A549 3.21 µM | ACHN 1.92 µM | UACC-62 1.99 µM | UO-31 2.82 µM | HT-29 2.55 µM | NCI-H23 1.7 µM | BT-549 1.96 µM | OVCAR-4 1.84 µM | SF-295 3.63 µM | TK-10 3.56 µM | Malme-3M 1.82 µM | PC-3 1.86 µM | HL-60 2.29 µM | IGROV-1 2.69 µM | Hs-578T 3.13 µM | COLO 205 1.81 µM | K562 2.01 µM | U-251 2.42 µM
active: MCF7 0.705 µM | A498 0.432 µM | MDA-N 0.6 µM | SW-620 0.353 µM | SR 0.489 µM | MDA-MB-435 1.07 µM | SF-268 0.436 µM
1.48 µM: HCT-15
